According to patent US20030119800A1, “Bone anabolic compounds and methods of use” (priority 2001, published 2003):
Starred links: 1 amine or outer side, 2 acyl side, 3 side chain; linkers in the order of their positions; H or OH if unused. Positions of bridges follow the written chain, without caps; N, C: chain ends. Non-standard residues stand in square brackets, D forms with d. Residues, ends and D or L forms follow the SMILES beside them. Chains are numbered I, II in the order given. Actinocin(9to1) = Cc1c2oc3c(C)ccc(C(=O)[*:1])c3nc-2c(C(=O)[*:2])c(N)c1=O; NMeV = CN[C@H](C(=O)O)C(C)C; Sar = CNCC(=O)O

Assays:
Bad = assay: E2-induced phosphorylation of Bad; assay type: cell-based; details: studies not shown (Kousteni et al, 2002)
[1] = tested on: calvaria-derived murine osteoblastic cells; assay: Etoposide-induced apoptosis of calvaria-derived osteoblastic cells; assay type: cell-based, mouse; details: for effect of synthesis inhibitor on the protective effect of E2 on etoposide-induced apoptosis: murine calvaria derived osteoblasts, doses not affecting cell viability, data not shown; for difference in potency in osteoblasts from one sex versus the other: cell preparations from females or males; for etoposide-induced apoptosis in primary cultures of osteoblasts: cells from female or male mice, dose dependent manner
From the text: HeLa cells were co-transfected with reporter constructs in which SRE or AP-1 drive the expression of secreted alkaline phosphatase (SEAP), along with the wild type ERα (A and B); or its ligand binding domain (E), or E fused to a membrane (E-Mem) or nuclear (E-Nuc) localization sequence (A). A dominant negaitve (dn) MEK or dn Jnk were also introduced into a subset of the ERα transfected cells. […] In FIGS. 1A and 1B, 100% indicates activity in vehicle treated cells. (C) HeLa cells were co-transfected with the ERα and nEGFP and wild type or dn mutants of the indicated transcription factors. […] (D) HeLa cells (upper panel) were transiently co-transfected with the ERα, a nonphosphorylatable dn mutant of Bad. Calvaria-derived murine osteoblastic cells (lower panel) were pre-treated with the P13K inhibitor wortmannin. Cells were then treated as in (C). […] (E) Proposed model for a kinase-mediated non-genotropic regulation of gene transcription and apoptosis by sex steroids.
(§1) Osteoblastic cells (A) were isolated from calvaria of neonatal female or male mice, the sex of which was determined by Southern blot analysis of liver DNA with a Y chromosome specific cDNA probe; and cultured as previously described. The ability of the indicated steroids to protect against etoposide induced apoptosis was determined as in FIG. 1D, lower panel. (B) Osteoclasts were generated in bone marrow cultures from adult female or male mice, and then treated with vehicle or the indicated concentrations of steroids for 24 hours at which point the number of cells undergoing apoptosis was determined. Representative results from 1 of 4 females and 1 of 4 males examined are shown. Each point represents the mean of triplicate determinations±SD. *p<0.05 vs. vehicle, by ANOVA. (C & D) Eight-month old Swiss Webster mice (n=8-10 per group) were sham-operated, ovariectomized (OVX) or orchidectomized (ORX). […] BMD and wet uterine or seminal vesicle weight was determined six weeks later. Bars indicate means±SD. *p<0.05 vs OVX or ORX.
(§2) Quantification of apoptotic cells in vitro: Apoptosis of HeLa cells or calvaria-derived osteoblastic cells was quantified by direct visualization of changes in nuclear morphology or by trypan blue staining, respectively, as previously described (Kousteni et al, 2001). Apoptosis of osteoclasts, derived from bone marrow cells cultured with 30 ng/ml M-CSF and 30 ng/ml soluble RANK ligand, was quantified by measuring caspase 3 activity as previously described (Weinstein et al, 2002).

DERKO mice = details: mouse, in vivo; cited from earlier work
[2] = tested on: OVX or ORX Swiss Webster mice; assay: Gonadectomized (OVX or ORX) Swiss Webster mice with 60-day slow release pellets: bone and reproductive tissues; assay type: in vivo, mouse; details: for gonadectomy-induced changes (osteoblast apoptosis, loss of BMD, osteoblastogenesis and osteoclastogenesis): replacement dose pellets (E2 0.025 mg, DHT 10 mg), OVX or ORX, irrespective of sex
Description: as §1
FIG. 9 illustrates the equivalence of the skeletal actions of estrogens and androgens in female and male mice. […] Six weeks later, osteoblast apoptosis in histologic sections of the vertebrae (A), osteoblastogenesis and osteoclastogenesis in ex vivo bone marrow cultures (B and C), and serum osteocalcin concentration (D) were determined. Bars indicate means±SD, *p<0.05 vs OVX or ORX.
Global, spine and hindlimb BMD was determined at both 4 and 6 weeks later in the experiment with the 8 month old females, and at 6 weeks only in the experiments with the 6 month old females and males (A, B and C). The 6 week BMD data in females (B) represent pooled values from the two experiments with the 6- and the 8-month old mice.
Longitudinal undecalcified sections of the distal femur are shown in (B). […] Osteoblast apoptosis in sections of L1-L4 vertebrae from females (8 month old) and males (C).
Histomorphometric analysis of L1-L4 vertebrae from 6 month old females (A-F) and pooled serum osteocalcin levels from the 6 and 8 month old females (G). […] The ANGELS compounds described herein are useful for maintaining and/or increasing bone mass and/or strength and/or density in mammals. Mammals, preferably humans, in need of such compounds can include those suffering from such conditions as female osteoporosis (post menopausal), male osteoporosis, glucocorticoid-induced osteoporosis, immobilization and aging-related osteoporosis, idiopathic or juvenile osteoporosis, transplantation-related osteoporosis, and alveolar ridge bone loss. In addition, the compounds described herein are particularly useful for administration to subjects that are unable or unwilling to tolerate therapies that have a masculinizing or feminizing effect. For example, subjects such as breast cancer patients (especially those with bone metastasis on gonadotropin […] hormone (GnRH) or ovariectomized), prostrate cancer patients (especially those on GnRH/castration therapy), and myeloma/lymphoma patients are frequently poor candidates for treatment with estrogen or androgens because of the risk of a recurrence of the underlying condition, e.g., cancer.
Wet uterine (A) or seminal vesicle weight (B) of female and male mice described in FIG. 11. […] Note the following morphologic differences in the uteri of OVX- and OVX+4-estren-3α,17β-diol-treated mice as compared to uteri from sham-operated and OVX+E2-treated mice: thin and atrophic columnar epithelium; compact stroma; decreased number of glands; decreased nucleus to cytoplasmic ratio in the columnar epithelial, endometrial stroma, and myometrial cells; and absence of mitotic activity. (D) Proliferation of MCF-7 cells was determined by ^3H-thymidine uptake.
For these studies, mature Swiss Webster mice (8 month old), n=8-10 per group, were sham-operated or gonadectomized (GNDX). […]

[3] = tested on: cells from mice lacking both ERα and ERβ (DERKO); details: cited from earlier work
[4] = tested on: osteoclasts generated in bone marrow cultures from adult female or male mice; assay: Osteoclast apoptosis in bone marrow derived cultures; assay type: cell-based, mouse
Description: as §1
FIG. 8 illustrates the pro-apoptotic effect of sex steroids on osteoclasts requires Src/ERK signaling. […] After 24 hours, the percentage of apoptotic osteoclasts was determined as in FIG. 7.
as §2

ERα = biological target: T1, ERα (Homo sapiens, UniProt P03372); assay: SRE-SEAP and AP-1-SEAP reporter assays in HeLa cells transfected with ERα; assay type: cell-based; details: steroids 10^−8 M for 15 minutes (E2 as little as five minutes), SEAP six hours later
T1 construct: HeLa cells transfected with the full length ERα; expressed in transfected cells; host or cells: HeLa
Description: HeLa cells were co-transfected with reporter constructs in which SRE or AP-1 drive the expression of secreted alkaline phosphatase (SEAP), along with the wild type ERα (A and B); or its ligand binding domain (E), or E fused to a membrane (E-Mem) or nuclear (E-Nuc) localization sequence (A). A dominant negaitve (dn) MEK or dn Jnk were also introduced into a subset of the ERα transfected cells. Cells were exposed to vehicle or the indicated steroids (10^−8M) for 15 minutes. The steroid containing media were then removed, the cells were washed twice, and the cultures were continued in fresh medium without steroids. Supernatants were collected six hours later and SEAP activity was assayed. In FIGS. 1A and 1B, 100% indicates activity in vehicle treated cells. (C) HeLa cells were co-transfected with the ERα and nEGFP and wild type or dn mutants of the indicated transcription factors. […] (D) HeLa cells (upper panel) were transiently co-transfected with the ERα, a nonphosphorylatable dn mutant of Bad. […] Cells were then treated as in (C).
Transient transfections and reporter assays: HeLa cells were transfected using Lipofectamine Plus (Life Technologies Inc.). For reporter assays (luciferase or secreated alkaline phosphatase SEAP), serum-starved cells were treated with the indicated steroids for 15 min after which the steroid-containing media were removed, cells washed twice with 1% BSA in PBS, and fresh media without steroid were added. SEAP or luciferase assays were performed 6 h later using the Great EscAPe SEAP Chemiluminescence Kit (Clontech, Palo Alto, Calif.) or the dual luciferase Kit (Promega, Madison, Wis.), respectively, according to the manufacturer's instructions. Both reporter activities were normalized to renilla luciferase activity.

T1 sequence (P03372 whole entry): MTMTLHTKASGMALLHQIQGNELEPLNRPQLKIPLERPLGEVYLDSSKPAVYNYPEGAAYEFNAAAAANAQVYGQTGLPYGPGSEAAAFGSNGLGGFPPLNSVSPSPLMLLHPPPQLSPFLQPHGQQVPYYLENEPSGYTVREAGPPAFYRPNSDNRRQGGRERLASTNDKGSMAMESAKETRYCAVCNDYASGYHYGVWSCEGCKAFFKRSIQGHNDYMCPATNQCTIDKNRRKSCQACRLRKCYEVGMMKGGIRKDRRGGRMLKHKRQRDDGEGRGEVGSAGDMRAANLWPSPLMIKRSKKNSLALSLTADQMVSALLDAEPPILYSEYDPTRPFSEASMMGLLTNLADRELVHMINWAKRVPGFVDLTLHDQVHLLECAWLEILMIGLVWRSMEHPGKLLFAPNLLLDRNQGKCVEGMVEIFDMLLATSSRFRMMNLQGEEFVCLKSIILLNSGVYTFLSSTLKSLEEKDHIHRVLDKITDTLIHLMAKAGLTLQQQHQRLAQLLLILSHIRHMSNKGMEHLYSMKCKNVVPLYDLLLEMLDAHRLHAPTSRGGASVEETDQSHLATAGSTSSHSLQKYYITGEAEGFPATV

Q: For COc1cccc(-c2cc(=O)c3ccccc3o2)c1N [PD98059], which “effect of inhibitor on E2-induced phosphorylation of Bad” value (Bad) is on record?
A: abolished

Q: With C[C@@H]1C[C@@H]([C@H](O)CC2CC(=O)NC(=O)C2)C(=O)[C@@H](C)C1 [cyclohexamide] as the compound, how does the “effect of synthesis inhibitor on the protective effect of E2 on etoposide-induced apoptosis” value [1] read?
A: abrogated

Q: For C[S+]([O-])c1ccc(-c2nc(-c3ccncc3)c(-c3ccc(F)cc3)[nH]2)cc1 (stereo not drawn) [SB203580], which “effect of kinase inhibitor on the anti-apoptotic effect of E2 and of 4-estren-3α,17β-diol” value ([1]; FIG. 1D, pre-treated calvaria-derived murine osteoblastic cells) is on record?
A: not

Q: For C[C@]12CC[C@@H]3c4ccc(O)cc4CC[C@H]3[C@@H]1CC[C@@H]2O [E2, 17β-estradiol], which “bone loss following OVX in DERKO mice” value (DERKO mice) is on record?
A: prevented

Q: What about the “difference in potency in osteoblasts from one sex versus the other” value [1] of the same compound?
A: no difference

Q: And the “etoposide-induced apoptosis in primary cultures of osteoblasts” value [1]?
A: attenuated etoposide-induced apoptosis

Q: And the “effect on the bone marrow cavity” value ([2]; 4-estren-3α,17β-diol 7.6 mg pellet, E2 pharmacologic dose 100× the replacement dose)?
A: closing the bone marrow cavity

Q: What about the “longitudinal undecalcified sections of the distal femur” value ([2]; 4-estren-3α,17β-diol at 300× ERT versus vehicle or E2 1× ERT, E2 at 100× ERT) of the same compound?
A: cancellous sclerosis

Q: What about the seminal vesicle weight ([2]; ORX males, pellets E2 0.025 mg or 4-estren-3α,17β-diol 7.6 mg) of the same compound?
A: failed to restore

Q: And the osteoclast number ([2]; as compared to the OVX group)?
A: suppressed

Q: What about the “rate of bone formation” value ([2]; as compared to the OVX group) of the same compound?
A: suppressed

Q: What about the “gonadectomy-induced changes (osteoblast apoptosis, loss of BMD, osteoblastogenesis and osteoclastogenesis)” value [2] of the same compound?
A: effectively prevented

Q: And the “ERK phosphorylation in DERKO cells” value [3]?
A: stimulates

Q: And the “osteoblast apoptosis in DERKO cells” value [3]?
A: prevents

Q: And the “osteoclast apoptosis in DERKO cells” value [3]?
A: stimulates

Q: What about the “difference in potency in osteoclasts from females and males” value [4] of the same compound?
A: no difference

Q: For Cc1ccc(-c2nn(C(C)(C)C)c3ncnc(N)c23)cc1 [PP1], which “effect of inhibitor on the pro-apoptotic effects of the sex steroids and 4-estren-3α,17β-diol on osteoclasts” value ([4]; pre-treatment for 1 hour prior to E2 or DHT) is on record?
A: abrogated

Q: For C[C@]12CCC(=O)C[C@@H]1CC[C@@H]1[C@@H]2CC[C@]2(C)[C@@H](O)CC[C@@H]12 [DHT, dyhydrotestosterone], which “difference in potency in osteoblasts from one sex versus the other” value [1] is on record?
A: no difference

Q: And the “etoposide-induced apoptosis in primary cultures of osteoblasts” value [1]?
A: attenuated etoposide-induced apoptosis

Q: And the “bone compression strength in the vertebrae, male mice” value ([2]; L5, ORX)?
A: equally effective

Q: What about the “BMD values in the spine versus the untreated ORX group” value ([2]; ORX males, 6 weeks) of the same compound?
A: not

Q: What about the wet uterine weight ([2]; OVX females, pellets DHT 10 mg or 4-estren-3α,17β-diol 7.6 mg) of the same compound?
A: did restore

Q: What about the “gonadectomy-induced changes (osteoblast apoptosis, loss of BMD, osteoblastogenesis and osteoclastogenesis)” value [2] of the same compound?
A: effectively prevented

Q: What about the “difference in potency in osteoclasts from females and males” value [4] of the same compound?
A: no difference

Q: With C[C@]12CC[C@@H]3c4ccc(O)cc4C[C@@H](CCCCCCCCC[S+]([O-])CCCC(F)(F)C(F)(F)F)[C@H]3[C@@H]1CC[C@@H]2O (stereo partly drawn) [ICI 182,780] as the compound, how does the “effect of antagonist on the effects of E2 or DHT on the lifespan of osteoblasts” value [1] read?
A: blocked

Q: And the “effect of antagonist on the effects of E2 in the DERKO cells” value [3]?
A: prevented

Q: And the “effect of antagonist on the effects of E2 or DHT on the lifespan of osteoclasts” value [4]?
A: blocked

Q: With c1cn[nH]c1 [pyrazole] as the compound, how does the “AP-1-dependent transcriptional activity (AP-1-SEAP)” value (ERα) read?
A: not

Q: What about the “SRE-dependent transcriptional activity (SRE-SEAP)” value (ERα) of the same compound?
A: not

Q: For Cc1c2oc3c(C)ccc(C(=O)N[C@@H]4C(=O)N[C@H](C(C)C)C(=O)N5CCC[C@H]5C(=O)N(C)CC(=O)N(C)[C@@H](C(C)C)C(=O)O[C@@H]4C)c3nc-2c(C(=O)N[C@@H]2C(=O)N[C@H](C(C)C)C(=O)N3CCC[C@H]3C(=O)N(C)CC(=O)N(C)[C@@H](C(C)C)C(=O)O[C@@H]2C)c(N)c1=O [actinomycin D] (I: T[dV]P[Sar][NMeV] / II: T[dV]P[Sar][NMeV]; ester I:1-I:C, II:1-II:C; linker I:N-II:N via Actinocin(9to1)), which “effect of synthesis inhibitor on the protective effect of E2 on etoposide-induced apoptosis” value [1] is on record?
A: abrogated
